Reference: US4337248A, “Paromomycin containing compounds and method of use” (Farmitalia Carlo Erba S.p.A., priority 1979, dated 1982)
Values after ≈ are worked out from the molar mass of the structure shown. Like-named read-outs stand apart in the source and are kept apart here.

Tests used:
Type in all cases: cell-based
[1] = system: Staphylococcus aureus 209P; test: In vitro MIC by serial dilution in liquid medium, Staphylococcus aureus 209P; conditions: read-out: minimum inhibitory concentration (MIC)
Experimental: (§1) The "in vitro" tests are carried out with the method of serial dilutions in liquid medium (Nutrient Broth Difco) and the minimal inhibition concentration (MIC) is determined after 24 hours incubation at 37° C.

Escherichia coli K 12 = test: In vitro MIC by serial dilution in liquid medium, Escherichia coli K 12; conditions: K12, Nutrient Broth Difco, 24 hours, 37° C, read-out: minimum inhibitory concentration (MIC)
Experimental: as §1

[2] = system: Escherichia coli K 12-R 112; test: In vitro MIC by serial dilution in liquid medium, Escherichia coli K 12-R 112; conditions: K12R112, 24 h, read-out: minimum inhibitory concentration (MIC)
Experimental: as §1

[3] = system: Escherichia coli K 12-R 148; test: In vitro MIC by serial dilution in liquid medium, Escherichia coli K 12-R 148; conditions: K12R148; Escherichia coli K 12-R 148, inactivating enzyme APH (3') II; Nutrient Broth Difco, 24 hours, 37° C; read-out: minimum inhibitory concentration (MIC)
Experimental: as §1

[4] = system: Escherichia coli K 12-R 55; test: In vitro MIC by serial dilution in liquid medium, Escherichia coli K 12-R 55; conditions: K12R55; Escherichia coli K 12-R 55, inactivating enzyme AAC (3) I; Nutrient Broth Difco, 24 hours, 37° C; read-out: minimum inhibitory concentration (MIC)
Experimental: as §1

[5] = system: resistant strains of gram-negative bacteria; test: In vitro antibacterial activity, resistant strains of gram-negative bacteria (summary in words); conditions: against some resistant strains of gram-negative bacteria
Experimental: as §1

bacteria = test: In vitro antibacterial activity (general statement)
Experimental: as §1

[6] = Staphylococcus aureus 209P, Nutrient Broth Difco, 24 hours, 37° C

NC[C@@H]1O[C@H](O[C@H]2[C@@H](O)[C@H](O[C@@H]3[C@@H](O)[C@H](N)C[C@H](N)[C@H]3O[C@H]3O[C@H](CO)C[C@H](O)[C@H]3N)O[C@@H]2CO)[C@H](N)[C@@H](O)[C@@H]1O [(8), 4'-Deoxy paromomycin]
MIC [1, 6]: 1.55 µg/mL (≈ 2.58 µM)
MIC (Escherichia coli K 12): 12.5 µg/mL (≈ 20.8 µM)
MIC [2]: > 200 µg/mL
MIC [3]: 50 µg/mL (≈ 83.4 µM)
MIC [4]: 6.25 µg/mL (≈ 10.4 µM)
activity compared with paromomycin [5]: increased activity against some resistant strains of gram-negative bacteria
antibacterial activity "in vitro" (bacteria): display antibacterial activity

NC[C@@H]1O[C@H](O[C@H]2[C@@H](O)[C@H](O[C@@H]3[C@@H](O)[C@H](N)C[C@H](N)[C@H]3O[C@H]3O[C@H](CO)[C@H](Cl)[C@H](O)[C@H]3N)O[C@@H]2CO)[C@H](N)[C@@H](O)[C@@H]1O [(12), 4'-Deoxy-4'-epi-chloro-paromomycin]
MIC [1, 6]: 6.25 µg/mL (≈ 9.86 µM)
MIC (Escherichia coli K 12): 50 µg/mL (≈ 78.9 µM)
MIC [2]: > 200 µg/mL
MIC [3]: 200 µg/mL (≈ 315 µM)
MIC [4]: 50 µg/mL (≈ 78.9 µM)
antibacterial activity "in vitro" (bacteria): display antibacterial activity

NC[C@@H]1O[C@H](O[C@H]2[C@@H](O)[C@H](O[C@@H]3[C@@H](O)[C@H](N)C[C@H](N)[C@H]3O[C@H]3O[C@H](CO)[C@@H](O)[C@H](O)[C@H]3N)O[C@@H]2CO)[C@H](N)[C@@H](O)[C@@H]1O [paromomycin]
MIC ([1]; Staphylococcus aureus, 209P, 24 h): 1.55 µg/mL (≈ 2.52 µM)
MIC (Escherichia coli K 12): 12.5 µg/mL (≈ 20.3 µM)
MIC [2]: > 200 µg/mL
MIC [3]: > 200 µg/mL
MIC [4]: 6.25 µg/mL (≈ 10.2 µM)
